From patent US10730865B2, “Compounds for modulating aquaporins” (APOGLYX AB, priority 2016, dated 2020)

Biological target: human aquaporin 9 (Homo sapiens (Human), UniProt O43315)
Experiment: Calcein quenching fluostar assay (inhibition of human aquaporin 9)
Type: cell-based
Conditions: Human AQP9 cell line; example compounds used as 1 mM stock solutions in DMSO
Procedure: Calcein Quenching Fluostar Assay
A calcein quenching fluostar assay was performed in order to investigate the biological activity of the newly synthesized examples 1 to 57. This type of assay is disclosed in J. Biol. Chem., 2011, 286, 44319-44325 and Am. J. Physiol. Renal Physiol. (2010), 298, F224-230.
1) Two days prior to commencement of the assay, seed 10,000 cells/well of 96 well black clear bottom plate (Greiner Poly-lysin plate). A 1:1 mix of Dulbecco's Modified Eagle's Medium: Nutrient Mixture F-12 (DMEM: F12) was obtained from Gibco. Tetracycline stock of 5 mg/ml in 96% ethanol is used. Medium: DMEM/F12/10% Donor Bovine Serum, Human AQP9 cell line+1:270,000 tetracyclin, mouse AQP9 cell line+1:2,700,000 tetracycline.
2) Day of assay: Flick/slam off the medium and add 50 μl/well of loading solution: 5 ml DMEM/F12/10% Donor Bovine Serum, 25 μl Calcein AM—from freshly dissolved aliquot in 50 μl DMSO (VWR #734-1434), and 100 μl Probenecid.
3) Incubate the well for 90 minutes at 37° C.
4) Perform one wash with 75 μl wash buffer.
5) Add 75 μl of an example compound prepared in wash buffer per well.
Example compounds are prepared in 500 μl U bottom PP plates (NUNC). 2.7 μl Substance in DMSO are added to row A; 180 μl of wash buffer+1% DMSO are added to rows B—H. 90 μl from row A are transferred and mixed with all other wells (up to row G) to make a 3-fold dilution series.
6) Assay in FLUOstar Optima at 25° C. Settings buffer addition at 135 μl/seconds, add 75 μl/well, record time course for 30 seconds, add sucrose buffer 3.6 seconds into recording.
7) Normalization to initial in Excel.
8) Fit to “exponential decay” function in GraphPad Prism 5.0, then arrange half live shrinking values according to wells and fit dose-response curves.

Sequence of human aquaporin 9 (O43315 whole entry): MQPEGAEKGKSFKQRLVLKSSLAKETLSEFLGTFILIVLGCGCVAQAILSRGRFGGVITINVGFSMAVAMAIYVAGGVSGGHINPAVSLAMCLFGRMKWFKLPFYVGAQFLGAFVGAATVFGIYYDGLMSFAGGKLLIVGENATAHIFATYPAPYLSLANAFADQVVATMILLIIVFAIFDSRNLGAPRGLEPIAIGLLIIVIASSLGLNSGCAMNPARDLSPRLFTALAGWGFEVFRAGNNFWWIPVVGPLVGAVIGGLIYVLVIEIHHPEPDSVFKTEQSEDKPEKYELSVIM

Row | EC50 [nM] | pEC50 in the inhibition of human aquaporin 9 | Structure (SMILES)
1 | 37 |  | CCn1c(SCC(=O)Nc2nnc(-c3ccc(OCCOC)cc3)s2)nnc1C(C)C [Example 31, 2-{[4-ethyl-5-(propan-2-yl)-4H-1,2,4-triazol-3-yl]sulfanyl}-N-{5-[4-(2-methoxyethoxy)phenyl]-1,3,4-thiadiazol-2-yl}acetamide]
2 | 43 |  | CCc1nnc(SCC(=O)Nc2nnc(-c3ccc(C#N)cc3)s2)n1CC [Example 32, N-[5-(4-cyanophenyl)-1,3,4-thiadiazol-2-yl]-2-[(4,5-diethyl-4H-1,2,4-triazol-3-yl)sulfanyl]acetamide]
3 | 119 |  | CCc1nnc(SCC(=O)Nc2nnc(-c3ccc(C(F)(F)F)cc3)s2)n1CC [Example 33, 2-[(4,5-diethyl-4H-1,2,4-triazol-3-yl)sulfanyl]-N-[5-(4-(trifluoromethyl)phenyl)-1,3,4-thiadiazol-2-yl]acetamide]
4 | 55 |  | CCc1nnc(SCC(=O)Nc2nnc(-c3ccc(OC(C)C)cc3)s2)n1CC [Example 34, 2-[(4,5-diethyl-4H-1,2,4-triazol-3-yl)sulfanyl]-N-[5-(4-isopropoxyphenyl)-1,3,4-thiadiazol-2-yl]acetamide]
5 | 54 |  | CCc1nnc(SCC(=O)Nc2nnc(-c3ccc(Cl)cc3)s2)n1CC [Example 35, N-[5-(4-chlorophenyl)-1,3,4-thiadiazol-2-yl]-2-[(4,5-diethyl-4H-1,2,4-triazol-3-yl)sulfanyl]acetamide]
6 | 51 | 7.3 | CCc1nnc(SCC(=O)Nc2nnc(-c3ccc(OC)cc3)s2)n1C1CC1 [Example 36, 2-[(4-cyclopropyl-5-ethyl-4H-1,2,4-triazol-3-yl)sulfanyl]-N-[5-(4-methoxyphenyl)-1,3,4-thiadiazol-2-yl]acetamide]
7 | 132 | 6.9 | CCn1c(Cc2cccc(F)c2)nnc1SCC(=O)Nc1nnc(-c2ccc(OC)cc2)s1 [Example 37, 2-[(4-ethyl-5-(3-fluorobenzyl)-4H-1,2,4-triazol-3-yl)sulfanyl]-N-[5-(4-methoxyphenyl)-1,3,4-thiadiazol-2-yl]acetamide]
8 | 81 | 7.1 | CCn1c(SCC(=O)Nc2nnc(-c3ccc(O)cc3)s2)nnc1C1CC1 [Example 38, 2-[(5-cyclopropyl-4-ethyl-4H-1,2,4-triazol-3-yl)sulfanyl]-N-[5-(4-hydroxyphenyl)-1,3,4-thiadiazol-2-yl]acetamide]
9 | 135 |  | CCc1nnc(SCC(=O)Nc2nnc(-c3ccc(S(C)(=O)=O)cc3)s2)n1C1CC1 [Example 39, 2-[(4-cyclopropyl-5-ethyl-4H-1,2,4-triazol-3-yl)sulfanyl]-N-[5-(4-(methylsulfonyl)phenyl)-1,3,4-thiadiazol-2-yl]acetamide]
10 | 168 |  | CCc1nnc(SCC(=O)Nc2nnc(-c3ccc(OC)cc3)s2)n1CCCO [Example 40, 2-[(5-ethyl-4-(3-hydroxypropyl)-4H-1,2,4-triazol-3-yl)sulfanyl]-N-[5-(4-methoxyphenyl)-1,3,4-thiadiazol-2-yl]acetamide]
11 | 490 | 6.3 | CCc1nnc(SCC(=O)Nc2nnc(-c3ccc(S(C)(=O)=O)cc3)s2)n1C [Example 41, 2-[(5-ethyl-4-methyl-4H-1,2,4-triazol-3-yl)sulfanyl]-N-[5-(4-(methylsulfonyl)phenyl)-1,3,4-thiadiazol-2-yl]acetamide]
12 | 76 | 7.1 | CCc1nnc(SCC(=O)Nc2nnc(-c3ccc(S(C)(=O)=O)cc3)s2)n1C(C)C [Example 42, 2-[(5-ethyl-4-isopropyl-4H-1,2,4-triazol-3-yl)sulfanyl]-N-[5-(4-(methylsulfonyl)phenyl)-1,3,4-thiadiazol-2-yl]acetamide]
13 | 52 |  | CCn1c(SCC(=O)Nc2nnc(-c3ccc(OCCOC)cc3)s2)nnc1C1CC1 [Example 43, 2-[(5-cyclopropyl-4-ethyl-4H-1,2,4-triazol-3-yl)sulfanyl]-N-[5-(4-(2-methoxyethoxy)phenyl)-1,3,4-thiadiazol-2-yl]acetamide]
14 | 457 |  | CCn1c(CCOC)nnc1SCC(=O)Nc1nnc(-c2ccc(OC)cc2)s1 [Example 44, 2-[(4-ethyl-5-(2-methoxyethyl)-4H-1,2,4-triazol-3-yl)sulfanyl]-N-[5-(4-methoxyphenyl)-1,3,4-thiadiazol-2-yl]acetamide]
15 | 40 |  | CCn1c(SCC(=O)Nc2nnc(-c3ccc(S(C)(=O)=O)cc3)s2)nnc1C1CCCC1 [Example 45, (2-[(5-cyclopentyl-4-ethyl-4H-1,2,4-triazol-3-yl)sulfanyl]-N-[5-(4-methanesulfonylphenyl)-1,3,4-thiadiazol-2-yl]acetamide)]
16 | 112 |  | CCc1nnc(SCC(=O)Nc2nnc(-c3ccc(OC)cc3)s2)n1CCOC [Example 46, 2-[(5-ethyl-4-(2-methoxyethyl)-4H-1,2,4-triazol-3-yl)sulfanyl]-N-[5-(4-methoxyphenyl)-1,3,4-thiadiazol-2-yl]acetamide]
17 | 159 |  | CCc1nnc(SCC(=O)Nc2nnc(-c3ccc(OC)cc3)s2)n1CCCOC [Example 47, 2-{[5-ethyl-4-(3-methoxypropyl)-4H-1,2,4-triazol-3-yl]sulfanyl}-N-[5-(4-methoxyphenyl)-1,3,4-thiadiazol-2-yl]acetamide]
18 | 230 |  | CCn1c(CN2CCOCC2)nnc1SCC(=O)Nc1nnc(-c2ccc(OC)cc2)s1 [Example 48, 2-{[4-ethyl-5-(morpholin-4-ylmethyl)-4H-1,2,4-triazol-3-yl]sulfanyl}-N-[5-(4-methoxyphenyl)-1,3,4-thiadiazol-2-yl]acetamide]
19 | 224 |  | CCc1nnc(SCC(=O)Nc2nnc(-c3ccccn3)s2)n1CC [Example 49, 2-[(4,5-diethyl-4H-1,2,4-triazol-3-yl)sulfanyl]-N-[5-(pyridin-2-yl)-1,3,4-thiadiazol-2-yl]acetamide]
